Results: the NIST ThermoML archive (doi:10.1016/j.jct.2017.01.016)

Experiment: xn = mol fraction of the nth substance listed
Conditions: 101 kPa, Liquid; for viscosity: Capillary tube (Ostwald / Ubbelohde) method; for speed of sound: Frequency=3 MHz, Linear variable-path acoustic interferometer

Cc1ccccc1C [1,2-dimethylbenzene] + C1COCCO1
Conditions	speed of sound [m/s]	viscosity [mPa·s]
293.15 K, x2 = 0	1367.7	0.8066
293.15 K, x2 = 0.0672	1361.7	0.8314
293.15 K, x2 = 0.1391	1355.5	0.8598
293.15 K, x2 = 0.2103	1350	0.8896
293.15 K, x2 = 0.2853	1345.3	0.9224
293.15 K, x2 = 0.3543	1341.7	0.9541
293.15 K, x2 = 0.4293	1338.8	0.9899
293.15 K, x2 = 0.5092	1336.9	1.03
293.15 K, x2 = 0.581	1336.5	1.067
293.15 K, x2 = 0.6518	1337.4	1.104
293.15 K, x2 = 0.7248	1339.8	1.144
293.15 K, x2 = 0.7888	1343.5	1.18
293.15 K, x2 = 0.8595	1349.3	1.221
293.15 K, x2 = 0.9298	1357.1	1.263
298.15 K, x2 = 0	1347.5	0.7576
298.15 K, x2 = 0.0672	1341.5	0.7791
298.15 K, x2 = 0.1391	1335.1	0.8033
298.15 K, x2 = 0.2103	1329.6	0.829
298.15 K, x2 = 0.2853	1324.8	0.8576
298.15 K, x2 = 0.3543	1321	0.8851
298.15 K, x2 = 0.4293	1317.9	0.9162
298.15 K, x2 = 0.5092	1315.9	0.9509
298.15 K, x2 = 0.581	1315.4	0.9833
298.15 K, x2 = 0.6518	1316.2	1.016
298.15 K, x2 = 0.7248	1318.3	1.052
298.15 K, x2 = 0.7888	1321.9	1.083
298.15 K, x2 = 0.8595	1327.4	1.12
298.15 K, x2 = 0.9298	1334.9	1.157
303.15 K, x2 = 0	1329.4	0.7132
303.15 K, x2 = 0.0672	1323	0.7321
303.15 K, x2 = 0.1391	1316.5	0.7527
303.15 K, x2 = 0.2103	1311	0.7747
303.15 K, x2 = 0.2853	1306	0.7992
303.15 K, x2 = 0.3543	1302	0.823
303.15 K, x2 = 0.4293	1298.6	0.8502
303.15 K, x2 = 0.5092	1296.3	0.8806
303.15 K, x2 = 0.581	1295.5	0.909
303.15 K, x2 = 0.6518	1296	0.9382
303.15 K, x2 = 0.7248	1298	0.9693
303.15 K, x2 = 0.7888	1301.3	0.9977
303.15 K, x2 = 0.8595	1306.5	1.03
303.15 K, x2 = 0.9298	1313.7	1.063
308.15 K, x2 = 0	1313.3	0.669
308.15 K, x2 = 0.0672	1306.3	0.6862
308.15 K, x2 = 0.1391	1299.9	0.7045
308.15 K, x2 = 0.2103	1293.9	0.724
308.15 K, x2 = 0.2853	1288.5	0.746
308.15 K, x2 = 0.3543	1284.3	0.7675
308.15 K, x2 = 0.4293	1280.4	0.792
308.15 K, x2 = 0.5092	1277.8	0.8194
308.15 K, x2 = 0.581	1276.7	0.8452
308.15 K, x2 = 0.6518	1276.8	0.8715
308.15 K, x2 = 0.7248	1278.4	0.8997
308.15 K, x2 = 0.7888	1281.2	0.9256
308.15 K, x2 = 0.8595	1285.9	0.9546
308.15 K, x2 = 0.9298	1292.5	0.9846
313.15 K, x2 = 0	1298.5	0.6315
313.15 K, x2 = 0.0672	1291	0.647
313.15 K, x2 = 0.1391	1284	0.6637
313.15 K, x2 = 0.2103	1277.8	0.6813
313.15 K, x2 = 0.2853	1272.1	0.7012
313.15 K, x2 = 0.3543	1267.6	0.7205
313.15 K, x2 = 0.4293	1263.5	0.7428
313.15 K, x2 = 0.5092	1260.5	0.7677
313.15 K, x2 = 0.581	1259	0.7912
313.15 K, x2 = 0.6518	1258.6	0.8152
313.15 K, x2 = 0.7248	1259.6	0.8408
313.15 K, x2 = 0.7888	1262	0.8642
313.15 K, x2 = 0.8595	1266	0.8906
313.15 K, x2 = 0.9298	1271.8	0.9176
318.15 K, x2 = 0	1285.2	0.5972
318.15 K, x2 = 0.0672	1277.2	0.6114
318.15 K, x2 = 0.1391	1269.7	0.6267
318.15 K, x2 = 0.2103	1263	0.6427
318.15 K, x2 = 0.2853	1256.9	0.661
318.15 K, x2 = 0.3543	1252.1	0.6786
318.15 K, x2 = 0.4293	1247.7	0.699
318.15 K, x2 = 0.5092	1244.1	0.7218
318.15 K, x2 = 0.581	1242.1	0.743
318.15 K, x2 = 0.6518	1241.3	0.7649
318.15 K, x2 = 0.7248	1241.7	0.7884
318.15 K, x2 = 0.7888	1243.4	0.8098
318.15 K, x2 = 0.8595	1246.6	0.834
318.15 K, x2 = 0.9298	1251.6	0.859

Cc1cc(C)cc(C)c1 [1,3,5-trimethylbenzene] + C1COCCO1
Conditions	speed of sound [m/s]	viscosity [mPa·s]
293.15 K, x2 = 0	1360.4	0.7056
293.15 K, x2 = 0.0696	1354.2	0.7332
293.15 K, x2 = 0.1408	1348.2	0.7648
293.15 K, x2 = 0.2098	1342.8	0.7974
293.15 K, x2 = 0.28	1337.8	0.8326
293.15 K, x2 = 0.3558	1333.1	0.8728
293.15 K, x2 = 0.4276	1329.3	0.9131
293.15 K, x2 = 0.5066	1326.5	0.9597
293.15 K, x2 = 0.5801	1325	1.005
293.15 K, x2 = 0.6548	1325.4	1.054
293.15 K, x2 = 0.7227	1327.5	1.099
293.15 K, x2 = 0.7936	1332	1.149
293.15 K, x2 = 0.8663	1340	1.202
293.15 K, x2 = 0.9319	1351	1.252
298.15 K, x2 = 0	1339.8	0.6592
298.15 K, x2 = 0.0696	1333.4	0.6835
298.15 K, x2 = 0.1408	1327.5	0.7112
298.15 K, x2 = 0.2098	1322.1	0.7398
298.15 K, x2 = 0.28	1317.1	0.7712
298.15 K, x2 = 0.3558	1312.5	0.8066
298.15 K, x2 = 0.4276	1308.9	0.8422
298.15 K, x2 = 0.5066	1306	0.8838
298.15 K, x2 = 0.5801	1304.5	0.9244
298.15 K, x2 = 0.6548	1304.7	0.9678
298.15 K, x2 = 0.7227	1306.5	1.009
298.15 K, x2 = 0.7936	1310.8	1.053
298.15 K, x2 = 0.8663	1318.5	1.101
298.15 K, x2 = 0.9319	1329	1.146
303.15 K, x2 = 0	1319.6	0.6188
303.15 K, x2 = 0.0696	1313.2	0.6405
303.15 K, x2 = 0.1408	1307.3	0.6646
303.15 K, x2 = 0.2098	1301.9	0.6896
303.15 K, x2 = 0.28	1297.1	0.7168
303.15 K, x2 = 0.3558	1292.5	0.7483
303.15 K, x2 = 0.4276	1288.9	0.78
303.15 K, x2 = 0.5066	1286	0.8167
303.15 K, x2 = 0.5801	1284.5	0.8532
303.15 K, x2 = 0.6548	1284.6	0.8918
303.15 K, x2 = 0.7227	1286.4	0.9287
303.15 K, x2 = 0.7936	1290.3	0.9688
303.15 K, x2 = 0.8663	1297.6	1.012
303.15 K, x2 = 0.9319	1307.8	1.052
308.15 K, x2 = 0	1300.2	0.5792
308.15 K, x2 = 0.0696	1294	0.5994
308.15 K, x2 = 0.1408	1287.9	0.6212
308.15 K, x2 = 0.2098	1282.6	0.6438
308.15 K, x2 = 0.28	1277.6	0.6685
308.15 K, x2 = 0.3558	1273	0.6966
308.15 K, x2 = 0.4276	1269.2	0.7253
308.15 K, x2 = 0.5066	1266.3	0.7589
308.15 K, x2 = 0.5801	1264.6	0.7918
308.15 K, x2 = 0.6548	1264.7	0.8274
308.15 K, x2 = 0.7227	1266.2	0.8612
308.15 K, x2 = 0.7936	1270	0.8982
308.15 K, x2 = 0.8663	1277	0.9376
308.15 K, x2 = 0.9319	1286.7	0.9752
313.15 K, x2 = 0	1280.4	0.5422
313.15 K, x2 = 0.0696	1274.3	0.5609
313.15 K, x2 = 0.1408	1268.3	0.5813
313.15 K, x2 = 0.2098	1262.9	0.6022
313.15 K, x2 = 0.28	1258	0.6248
313.15 K, x2 = 0.3558	1253.3	0.651
313.15 K, x2 = 0.4276	1249.6	0.6774
313.15 K, x2 = 0.5066	1246.4	0.7084
313.15 K, x2 = 0.5801	1244.7	0.7391
313.15 K, x2 = 0.6548	1244.6	0.7717
313.15 K, x2 = 0.7227	1246.1	0.8032
313.15 K, x2 = 0.7936	1249.9	0.8372
313.15 K, x2 = 0.8663	1256.5	0.874
313.15 K, x2 = 0.9319	1265.7	0.9088
318.15 K, x2 = 0	1263	0.5066
318.15 K, x2 = 0.0696	1256.9	0.5246
318.15 K, x2 = 0.1408	1250.8	0.5436
318.15 K, x2 = 0.2098	1245.3	0.5634
318.15 K, x2 = 0.28	1240.3	0.5846
318.15 K, x2 = 0.3558	1235.4	0.6092
318.15 K, x2 = 0.4276	1231.5	0.6342
318.15 K, x2 = 0.5066	1228.3	0.6632
318.15 K, x2 = 0.5801	1226.4	0.692
318.15 K, x2 = 0.6548	1226	0.7224
318.15 K, x2 = 0.7227	1227.1	0.7515
318.15 K, x2 = 0.7936	1230.5	0.7836
318.15 K, x2 = 0.8663	1236.7	0.8178
318.15 K, x2 = 0.9319	1245.3	0.8501
